Earlier results as cited in patent publication US9950044B2, “Treatment of pulmonary vascular remodeling with neprilysin” (THE REGENTS OF THE UNIVERSITY OF COLORADO, A BODY CORPORATE, priority 2010, dated 2018).

How the values were obtained:
NEP = settings: exogenous VIP; cited from earlier work
[1] = test system: human PA SMCs from IPAH patients; settings: cells from IPAH patients; cited from earlier work
VIP KO mice = settings: IP injections every other day; cited from earlier work
human IPAH patients = settings: cited from earlier work
[2] = human IPAH patients, inhalation

## VIP: 28 amino acid peptide with a molecular weight of 3.33 kD
NEP
  effect on NEP enzymatic activity: did not affect
[1]
  in vitro proliferation of human PA SMCs: inhibited
VIP KO mice
  PA medial thickening: reduced
  RV hypertrophy: reduced
Human IPAH patients; [2]
  PaO2: significant improvement
  exercise capacity: significant improvement
Human IPAH patients; human, in vivo
  untoward effects reported by subjects: no untoward effects
